# In the NIST ThermoML archive (doi:10.1016/j.fluid.2014.01.019):
# Numbers after ± are expanded uncertainties.
# Assay: xn = mol fraction of the nth substance listed
# Details: 101 kPa, Liquid; for mass density: Vibrating tube method; for speed of sound: Frequency=2 MHz, Linear variable-path acoustic interferometer
smiles,measurement,setting,value
Cc1ccc(Cl)cc1 [4-chlorotoluene] + OCc1ccccc1,mass density,"298.15 K, x2 = 0.0509",1063.78 ± 0.16 kg/m3
same,mass density,"298.15 K, x2 = 0.1252",1062.11 ± 0.16 kg/m3
same,mass density,"298.15 K, x2 = 0.1878",1060.69 ± 0.15 kg/m3
same,mass density,"298.15 K, x2 = 0.2309",1059.7 ± 0.15 kg/m3
same,mass density,"298.15 K, x2 = 0.3028",1058.05 ± 0.15 kg/m3
same,mass density,"298.15 K, x2 = 0.3649",1056.62 ± 0.15 kg/m3
same,mass density,"298.15 K, x2 = 0.4393",1054.9 ± 0.15 kg/m3
same,mass density,"298.15 K, x2 = 0.5424",1052.48 ± 0.15 kg/m3
same,mass density,"298.15 K, x2 = 0.6094",1050.91 ± 0.15 kg/m3
same,mass density,"298.15 K, x2 = 0.6598",1049.71 ± 0.15 kg/m3
same,mass density,"298.15 K, x2 = 0.7028",1048.68 ± 0.15 kg/m3
same,mass density,"298.15 K, x2 = 0.7557",1047.41 ± 0.15 kg/m3
same,mass density,"298.15 K, x2 = 0.8153",1045.97 ± 0.15 kg/m3
same,mass density,"298.15 K, x2 = 0.8539",1045.04 ± 0.15 kg/m3
same,mass density,"298.15 K, x2 = 0.9235",1043.33 ± 0.14 kg/m3
same,speed of sound,"303.15 K, x2 = 0.0509",1292 ± 8 m/s
same,speed of sound,"303.15 K, x2 = 0.1252",1327 ± 8 m/s
same,speed of sound,"303.15 K, x2 = 0.1878",1350 ± 8 m/s
same,speed of sound,"303.15 K, x2 = 0.2309",1370 ± 8 m/s
same,speed of sound,"303.15 K, x2 = 0.3028",1394 ± 9 m/s
same,speed of sound,"303.15 K, x2 = 0.3649",1415 ± 9 m/s
same,speed of sound,"303.15 K, x2 = 0.4393",1439 ± 9 m/s
same,speed of sound,"303.15 K, x2 = 0.5424",1468 ± 9 m/s
same,speed of sound,"303.15 K, x2 = 0.6094",1480 ± 9 m/s
same,speed of sound,"303.15 K, x2 = 0.6598",1493 ± 9 m/s
same,speed of sound,"303.15 K, x2 = 0.7028",1502 ± 9 m/s
same,speed of sound,"303.15 K, x2 = 0.7557",1506 ± 9 m/s
same,speed of sound,"303.15 K, x2 = 0.8153",1511 ± 9 m/s
same,speed of sound,"303.15 K, x2 = 0.8539",1513 ± 9 m/s
same,speed of sound,"303.15 K, x2 = 0.9235",1514 ± 9 m/s
same,mass density,"303.15 K, x2 = 0.0509",1058.47 ± 0.15 kg/m3
same,mass density,"303.15 K, x2 = 0.1252",1056.85 ± 0.15 kg/m3
same,mass density,"303.15 K, x2 = 0.1878",1055.5 ± 0.15 kg/m3
same,mass density,"303.15 K, x2 = 0.2309",1054.46 ± 0.15 kg/m3
same,mass density,"303.15 K, x2 = 0.3028",1052.76 ± 0.15 kg/m3
same,mass density,"303.15 K, x2 = 0.3649",1051.58 ± 0.15 kg/m3
same,mass density,"303.15 K, x2 = 0.4393",1049.98 ± 0.15 kg/m3
same,mass density,"303.15 K, x2 = 0.5424",1047.59 ± 0.15 kg/m3
same,mass density,"303.15 K, x2 = 0.6094",1046.21 ± 0.15 kg/m3
same,mass density,"303.15 K, x2 = 0.6598",1045.06 ± 0.15 kg/m3
same,mass density,"303.15 K, x2 = 0.7028",1044.09 ± 0.15 kg/m3
same,mass density,"303.15 K, x2 = 0.7557",1042.91 ± 0.15 kg/m3
same,mass density,"303.15 K, x2 = 0.8153",1041.58 ± 0.15 kg/m3
same,mass density,"303.15 K, x2 = 0.8539",1040.74 ± 0.15 kg/m3
same,mass density,"303.15 K, x2 = 0.9235",1039.23 ± 0.14 kg/m3
same,mass density,"308.15 K, x2 = 0.0509",1053.11 ± 0.15 kg/m3
same,mass density,"308.15 K, x2 = 0.1252",1051.49 ± 0.15 kg/m3
same,mass density,"308.15 K, x2 = 0.1878",1050.13 ± 0.15 kg/m3
same,mass density,"308.15 K, x2 = 0.2309",1049.19 ± 0.15 kg/m3
same,mass density,"308.15 K, x2 = 0.3028",1047.63 ± 0.15 kg/m3
same,mass density,"308.15 K, x2 = 0.3649",1046.32 ± 0.15 kg/m3
same,mass density,"308.15 K, x2 = 0.4393",1044.75 ± 0.15 kg/m3
same,mass density,"308.15 K, x2 = 0.5424",1042.61 ± 0.15 kg/m3
same,mass density,"308.15 K, x2 = 0.6094",1041.23 ± 0.15 kg/m3
same,mass density,"308.15 K, x2 = 0.6598",1040.21 ± 0.15 kg/m3
same,mass density,"308.15 K, x2 = 0.7028",1039.35 ± 0.15 kg/m3
same,mass density,"308.15 K, x2 = 0.7557",1038.31 ± 0.14 kg/m3
same,mass density,"308.15 K, x2 = 0.8153",1037.16 ± 0.14 kg/m3
same,mass density,"308.15 K, x2 = 0.8539",1036.42 ± 0.14 kg/m3
same,mass density,"308.15 K, x2 = 0.9235",1035.1 ± 0.14 kg/m3
same,speed of sound,"313.15 K, x2 = 0.0509",1248 ± 8 m/s
same,speed of sound,"313.15 K, x2 = 0.1252",1265 ± 8 m/s
same,speed of sound,"313.15 K, x2 = 0.1878",1281 ± 8 m/s
same,speed of sound,"313.15 K, x2 = 0.2309",1288 ± 8 m/s
same,speed of sound,"313.15 K, x2 = 0.3028",1307 ± 8 m/s
same,speed of sound,"313.15 K, x2 = 0.3649",1325 ± 8 m/s
same,speed of sound,"313.15 K, x2 = 0.4393",1343 ± 8 m/s
same,speed of sound,"313.15 K, x2 = 0.5424",1369 ± 8 m/s
same,speed of sound,"313.15 K, x2 = 0.6094",1387 ± 9 m/s
same,speed of sound,"313.15 K, x2 = 0.6598",1399 ± 9 m/s
same,speed of sound,"313.15 K, x2 = 0.7028",1410 ± 9 m/s
same,speed of sound,"313.15 K, x2 = 0.7557",1423 ± 9 m/s
same,speed of sound,"313.15 K, x2 = 0.8153",1437 ± 9 m/s
same,speed of sound,"313.15 K, x2 = 0.8539",1448 ± 9 m/s
same,speed of sound,"313.15 K, x2 = 0.9235",1465 ± 9 m/s
same,mass density,"313.15 K, x2 = 0.0509",1048.16 ± 0.15 kg/m3
same,mass density,"313.15 K, x2 = 0.1252",1046.61 ± 0.15 kg/m3
same,mass density,"313.15 K, x2 = 0.1878",1045.28 ± 0.15 kg/m3
same,mass density,"313.15 K, x2 = 0.2309",1044.4 ± 0.15 kg/m3
same,mass density,"313.15 K, x2 = 0.3028",1042.92 ± 0.15 kg/m3
same,mass density,"313.15 K, x2 = 0.3649",1041.65 ± 0.15 kg/m3
same,mass density,"313.15 K, x2 = 0.4393",1040.17 ± 0.15 kg/m3
same,mass density,"313.15 K, x2 = 0.5424",1038.12 ± 0.15 kg/m3
same,mass density,"313.15 K, x2 = 0.6094",1036.83 ± 0.14 kg/m3
same,mass density,"313.15 K, x2 = 0.6598",1035.88 ± 0.14 kg/m3
same,mass density,"313.15 K, x2 = 0.7028",1035.06 ± 0.14 kg/m3
same,mass density,"313.15 K, x2 = 0.7557",1034.1 ± 0.14 kg/m3
same,mass density,"313.15 K, x2 = 0.8153",1033.02 ± 0.14 kg/m3
same,mass density,"313.15 K, x2 = 0.8539",1032.32 ± 0.14 kg/m3
same,mass density,"313.15 K, x2 = 0.9235",1031.15 ± 0.14 kg/m3
